Measurements published in patent publication US9764047B2, “Method for obtaining novel derivatives of naphthalene for the in vivo diagnosis of alzheimer's disease” (CENTRO DE NEUROCIENCIAS DE CUBA, priority 2009, dated 2017).
Where two headings read alike, the source gives them in different places.

Tests used:
[1] = Determination of partition coefficients (n-octanol/water, radiotracer method); assay type: physicochemical
Description: Chemical compounds that cross the blood brain barrier (BBB) should be neutral and lipophilic and also, have a low molecular weight. The partition coefficient (P) provides a measure of the compound lipophilicity and is closely related to drug distribution in the body, its absorption in tissues and its route of excretion (Meade et al. in Curr. Opin. Neurobiol., 2003, 13, 5, 597-602). One method used to determine this parameter is that of radiotracers which relates the radiotracers activity or number of counts in the octanol organic phase with that of the aqueous phase. In this invention the compounds labeling is carried out using the Iodogeno method (^131I).
Determination of Partition Coefficients: A solution of 9 (20 μL), prepared as described in example 10, was added to a mixture of 3 ml of n-octanol and 3 ml of distilled water. After stirring and leaving to stand the mixture, aliquots of 20 μL from each phase were taken to determine the radiometric distribution ratio by an activity meter (CRC 35R, Capintec Inc.). This procedure was repeated to the radiopharmaceutical of ^99mTc-ECD as reference, which is used for cerebral perfusion studies.

[2] = Biodistribution in rats after intravenous injection (gamma camera imaging); assay type: in vivo, male Wistar rats
Experimental: The arrow indicates the detection of the compound in the region of interest (maximum uptake at about 3 min.).
Animal Studies: A solution of 9 15 MBq ([…]), prepared as described above, was administered to male Wistar rats (160 g, n=3) through the lateral tail vein. Then, images were taken every 15 seconds, for 30 min. (120 images) with a gamma camera (Medis Nucline TH22, Hungary), with a peak centered at 360 keV and a window of ±25%. The image processing was performed on a processing station Segami (USA).

`O=C(O)CCNC(=O)CCC(=O)Nc1cccc2ccccc12` gave a melting point of 180.5 to 181.8 °C.

For `O=C(O)CCC(=O)Nc1cccc2ccccc12` [Compound 2, 4-(1-naphthylamino)-4-oxobutanoic acid], the melting point was 167 to 169 °C.

For `CCOC(=O)[C@H](C[S-])[N-]CCN[C@@H](C[S-])C(=O)OCC.[O-2].[Tc]` [^99mTc-ECD, ^99mTc-ethylcysteinate diethyl ester, reference compound], the Partition coefficient [1] was 40.6 and the logP [1] was 1.6.

In the case of “N1-(2-aminoethyl)-N4-(1-naphthyl) succinimide-^131I [Compound 9]”, the Partition coefficient ([1]; n-octanol/distilled water, radiometric distribution ratio) is reported as 0.54, the logP ([1]; octanol/water) is reported as −0.27 and the “time of maximum uptake in the region of interest” value ([2]; 131I-labeled compound) is reported as “about 3 min”. The “excretion of the radioiodinated compound” value ([2]; after maximum uptake) was “slow excretion”.
